Measured values as given in PMC9784969, “SARS-CoV-2 Inhibitors Identified by Phenotypic Analysis of a Collection of Viral RNA-Binding Molecules” (Pharmaceuticals, 2022).

What was measured:
SCoV2 RNA elements = test: ligand-based 1H NMR (1D, CPMG, wLOGSY), six RNA elements compared; assay type: binding, SARS-CoV-2; details: CSP, LB, CPMG and wLOGSY perturbations; 300 µM compound
Text: We first used ligand-based ^1H NMR experiments to analyze the interaction of the selected compounds with each of the six RNA elements specified above, including one-dimensional, Carr–Purcell–Meiboom–Gill (CPMG) and waterLOGSY (wLOGSY) experiments. These assays detect changes in the ^1H signals of the ligand upon RNA association (Figure 4A), and have been successfully used to evaluate small-molecule binding to RNA motifs, including elements of the SCoV2 genome.
Each ligand (at a concentration of 300 μM) was mixed with a smaller quantity of RNA in an aqueous solution containing 25 mM potassium phosphate (pH 6.2), 150 mM KCl, 3 mM MgCl2, and 10% D2O. RNA–ligand molar ratios of 1:50 and 1:100 were explored (with 6 and 3 μM RNA, respectively). […] The water signal was suppressed from one-dimensional experiments with a watergate sequence. The CPMG experiments were acquired with 100, 200, 300, and 400 ms relaxation delays before acquisition, and water suppression was achieved by presaturation. wLOGSY experiments employed a selective Gaussian 180° pulse at the water frequency and an NOE mixing time of 1.5 s and suppressed the water signal by excitation sculpting. All spectra were acquired in the absence and presence of RNA.
All ligand signals were individually analyzed. For clomiphene citrate, the signals corresponding to cis and trans forms were identified by comparing the spectrum of clomiphene citrate with those of the individual stereoisomers. In CPMG experiments, the binding of the compounds to the different RNA sequences was quantified as 100 minus the percentage of ligand signal area in the +RNA CPMG spectrum relative to the corresponding signal area in the -RNA CPMG spectrum. In wLOGSY experiments, binding was quantified with the LOGSY factor, or % of ligand signal in the difference spectrum between the +RNA and –RNA wLOGSY spectra, relative to the corresponding signal in the one-dimensional -RNA reference spectrum. In one-dimensional experiments, line broadening (LB) was quantified as explained for CPMG spectra.

5_SL2+3 RNA [1] = test: ligand-based 1H NMR (1D, CPMG, wLOGSY); assay type: binding, SARS-CoV-2
[2] = test system: subdomain IIa of the internal ribosome entry site (IRES) RNA of HCV; parameters: method as in earlier work; details: ref 6 (Table S1 list: Martín-Villamil et al. 2022); cited from earlier work
5_SL2+3 RNA [3] = test: RNA-based 1H NMR (TOCSY) titration; assay type: binding, SARS-CoV-2; details: RNA:ligand up to 1:4
Vero E6 cells = details: read-out: SARS-CoV-2 CC50, uninfected, MTT
HIV-1 = details: ref 3 (Table S1 list: Simba-Lahuasi et al., Unpublished results); cited from earlier work
[4] = test system: subdomain IIB of the rev recognition element (RRE) of the HIV-1 genomic RNA; details: ref 3 (Table S1 list: Simba-Lahuasi et al., Unpublished results); cited from earlier work
[5] = average of aliphatic protons, RNA:ligand 1:100 (clomiphene) or 1:50 (trim, qz2)
[6] = average of aromatic protons, RNA:ligand 1:100 (clomiphene) or 1:50 (trim, qz2)

Which RNA binding preference (SCoV2 RNA elements) does the source give for `CC(C)CCN1CCC(CNc2nc3ccccc3c(=O)[nH]2)CC1` [qz2] here?
Its RNA binding preference is “bound to the ORF7b element only”.

What about the CPMG variation (5_SL2+3 RNA [1]; [5]) of the same compound?
The CPMG variation was -3.85%.

And the LB (5_SL2+3 RNA [1]; [5])?
The LB was -0.01%.

And the LOGSY factor (5_SL2+3 RNA [1]; [5])?
Its LOGSY factor is 2.85%.

What about the CPMG variation (5_SL2+3 RNA [1]; [6]) of the same compound?
The CPMG variation was 4.67%.

What about the LB (5_SL2+3 RNA [1]; [6]) of the same compound?
The LB was 1.97%.

And the LOGSY factor (5_SL2+3 RNA [1]; [6])?
The LOGSY factor was 5.80%.

And the CPMG variation (5_SL2+3 RNA [1]; qz2 peak A, RNA:ligand 1:50)?
Its CPMG variation is 3.62%.

What about the LB (5_SL2+3 RNA [1]; qz2 peak A, RNA:ligand 1:50) of the same compound?
The LB was 6.29%.

What about the LOGSY factor (5_SL2+3 RNA [1]; qz2 peak A, RNA:ligand 1:50) of the same compound?
Its LOGSY factor is 1.74%.

And the CPMG variation (5_SL2+3 RNA [1]; qz2 peak C/D, RNA:ligand 1:50)?
The CPMG variation was -2.36%.

And the LB (5_SL2+3 RNA [1]; qz2 peak C/D, RNA:ligand 1:50)?
The LB was -0.32%.

What about the LOGSY factor (5_SL2+3 RNA [1]; qz2 peak C/D, RNA:ligand 1:50) of the same compound?
Its LOGSY factor is 3.84%.

And the CPMG variation (5_SL2+3 RNA [1]; qz2 peak E/B, RNA:ligand 1:50)?
Its CPMG variation is -11.8%.

What about the LB (5_SL2+3 RNA [1]; qz2 peak E/B, RNA:ligand 1:50) of the same compound?
The LB was 8.30%.

What about the LOGSY factor (5_SL2+3 RNA [1]; qz2 peak E/B, RNA:ligand 1:50) of the same compound?
Its LOGSY factor is 4.57%.

What about the CPMG variation (5_SL2+3 RNA [1]; qz2 peak F, RNA:ligand 1:50) of the same compound?
The CPMG variation was -1.52%.

What about the LB (5_SL2+3 RNA [1]; qz2 peak F, RNA:ligand 1:50) of the same compound?
Its LB is -13.0%.

And the LOGSY factor (5_SL2+3 RNA [1]; qz2 peak F, RNA:ligand 1:50)?
Its LOGSY factor is 2.30%.

What about the CPMG variation (5_SL2+3 RNA [1]; qz2 peak G, RNA:ligand 1:50) of the same compound?
The CPMG variation was -3.33%.

And the LB (5_SL2+3 RNA [1]; qz2 peak G, RNA:ligand 1:50)?
The LB was 3.46%.

What about the LOGSY factor (5_SL2+3 RNA [1]; qz2 peak G, RNA:ligand 1:50) of the same compound?
Its LOGSY factor is 1.79%.

What about the CPMG variation (5_SL2+3 RNA [1]; qz2 peak I, RNA:ligand 1:50) of the same compound?
The CPMG variation was 4.89%.

And the LB (5_SL2+3 RNA [1]; qz2 peak I, RNA:ligand 1:50)?
Its LB is 5.64%.

And the LOGSY factor (5_SL2+3 RNA [1]; qz2 peak I, RNA:ligand 1:50)?
Its LOGSY factor is 6.13%.

And the CPMG variation (5_SL2+3 RNA [1]; qz2 peak J, RNA:ligand 1:50)?
Its CPMG variation is 5.88%.

What about the LB (5_SL2+3 RNA [1]; qz2 peak J, RNA:ligand 1:50) of the same compound?
The LB was -6.27%.

And the LOGSY factor (5_SL2+3 RNA [1]; qz2 peak J, RNA:ligand 1:50)?
Its LOGSY factor is 7.22%.

And the CPMG variation (5_SL2+3 RNA [1]; qz2 peak K, RNA:ligand 1:50)?
The CPMG variation was 3.01%.

What about the LB (5_SL2+3 RNA [1]; qz2 peak K, RNA:ligand 1:50) of the same compound?
The LB was 6.54%.

What about the LOGSY factor (5_SL2+3 RNA [1]; qz2 peak K, RNA:ligand 1:50) of the same compound?
Its LOGSY factor is 4.04%.

What about the “Previous target RNA binding” value [2] of the same compound?
The value was “yes”.

For `NCCCc1cn(C(c2ccccc2)(c2ccccc2)c2ccccc2)cn1` [trim], which RNA binding preference (SCoV2 RNA elements) is on record?
Its RNA binding preference is “bound with enhanced affinity to the 5_SL2+3 and 3_S2m molecules”.

What about the CPMG variation (5_SL2+3 RNA [1]; [5]) of the same compound?
The CPMG variation was 31.0%.

And the LB (5_SL2+3 RNA [1]; [5])?
The LB was 19.1%.

And the LOGSY factor (5_SL2+3 RNA [1]; [5])?
The LOGSY factor was 49.4%.

And the CPMG variation (5_SL2+3 RNA [1]; [6])?
The CPMG variation was 39.0%.

What about the LB (5_SL2+3 RNA [1]; [6]) of the same compound?
The LB was 15.9%.

And the LOGSY factor (5_SL2+3 RNA [1]; [6])?
Its LOGSY factor is 131.1%.

And the CPMG variation (5_SL2+3 RNA [1]; trim peak A, RNA:ligand 1:50)?
Its CPMG variation is 32.9%.

What about the LB (5_SL2+3 RNA [1]; trim peak A, RNA:ligand 1:50) of the same compound?
Its LB is 15.7%.

And the LOGSY factor (5_SL2+3 RNA [1]; trim peak A, RNA:ligand 1:50)?
Its LOGSY factor is 55.3%.

What about the CPMG variation (5_SL2+3 RNA [1]; trim peak B, RNA:ligand 1:50) of the same compound?
The CPMG variation was 36.9%.

What about the LB (5_SL2+3 RNA [1]; trim peak B, RNA:ligand 1:50) of the same compound?
The LB was 20.8%.

What about the LOGSY factor (5_SL2+3 RNA [1]; trim peak B, RNA:ligand 1:50) of the same compound?
The LOGSY factor was 43.4%.

What about the CPMG variation (5_SL2+3 RNA [1]; trim peak C, RNA:ligand 1:50) of the same compound?
Its CPMG variation is 40.3%.

And the LB (5_SL2+3 RNA [1]; trim peak C, RNA:ligand 1:50)?
The LB was 14.9%.

And the LOGSY factor (5_SL2+3 RNA [1]; trim peak C, RNA:ligand 1:50)?
The LOGSY factor was 131%.

What about the CPMG variation (5_SL2+3 RNA [1]; trim peak D, RNA:ligand 1:50) of the same compound?
The CPMG variation was 38.6%.

What about the LB (5_SL2+3 RNA [1]; trim peak D, RNA:ligand 1:50) of the same compound?
The LB was 16.0%.

And the LOGSY factor (5_SL2+3 RNA [1]; trim peak D, RNA:ligand 1:50)?
Its LOGSY factor is 126%.

And the CPMG variation (5_SL2+3 RNA [1]; trim peak E, RNA:ligand 1:50)?
Its CPMG variation is 38.9%.

What about the LB (5_SL2+3 RNA [1]; trim peak E, RNA:ligand 1:50) of the same compound?
The LB was 16.7%.

What about the LOGSY factor (5_SL2+3 RNA [1]; trim peak E, RNA:ligand 1:50) of the same compound?
Its LOGSY factor is 135%.

And the TOCSY perturbations (5_SL2+3 RNA [3])?
The TOCSY perturbations was “larger variations than clomiphene or qz2”.

And the CC50 (Vero E6 cells)?
Its CC50 is > 89.8 µM.

What about the “Previous target virus activity” value (HIV-1) of the same compound?
The value was “yes”.

And the “Previous target RNA binding” value [4]?
Its value is “yes”.
